Reference: the supplement of paper PMC4862054

Each compound was assayed on MDA-MB-453 (assay: normalised response (% of control), CellTiter-Glo; higher = more viable cells (100 = DMSO, 0 = benzethonium chloride kill control)). Details: incubation time: 72 h.
Method in brief: (§1)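 Normalised signals at single concentrations make up the values. They come from breast cancer cell lines seeded (20 µl suspension) into 384-well plates with compound at 5 concentrations in 10-fold steps over a compound-specific 10,000-fold range, incubated 72 h, and read for CellTox Green fluorescence then CellTiter-Glo luminescence. Each plate was normalised to 0.1 % DMSO (100) and a positive kill control (0).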
In the case of `CCCS(=O)(=O)Nc1ccc(F)c(C(=O)c2c[nH]c3ncc(-c4ccc(Cl)cc4)cc23)c1F` [Vemurafenib] (1 nM), the normalised response is reported as 83.4%.
`CC1=C(/C=C/C(C)=C/C=C/C(C)=C/C(=O)O)C(C)(C)CCC1` [Tretinoin] (10 nM) gave a normalised response of 94.7%.
Work on `Cc1ccc(-c2cc(C(F)(F)F)nn2-c2ccc(S(N)(=O)=O)cc2)cc1` [Celecoxib] (1 nM) yielded a normalised response of 111%.
With `Oc1ncc(N(CCCl)CCCl)c(O)n1` [Uracil mustard] (1 nM) the normalised response was 105%.
Work on `Nc1ccccc1NC(=O)c1ccc(CNC(=O)OCc2cccnc2)cc1` [Entinostat] (1 nM) yielded a normalised response of 114%.
For `C=CC(=O)Nc1cc2c(Nc3ccc(F)c(Cl)c3)ncnc2cc1OCCCN1CCOCC1` [Canertinib] (1 nM), the normalised response was 108%.

These compounds were tested on CAL-120 in the same assay as above. Details: incubation time: 72 h.
Method in brief: as §1
Work on `C=CC(=O)N1CCC[C@@H](n2nc(-c3ccc(Oc4ccccc4)cc3)c3c(N)ncnc32)C1` [Ibrutinib] (0.1 nM) yielded a normalised response of 97.1%.
Compound `Nc1nc2[nH]cc(CCc3ccc(C(=O)N[C@@H](CCC(=O)O)C(=O)O)cc3)c2c(=O)[nH]1` [Pemetrexed] (1 nM) has a normalised response of 106%.
In the case of `COc1cc2nccc(Oc3ccc(NC(=O)Nc4cc(C)on4)c(Cl)c3)c2cc1OC` [Tivozanib] (1 nM), the normalised response is reported as 95.7%.
Work on `COc1cc2c(NC3CCN(C(C)C)CC3)nc(C3CCCCC3)nc2cc1OCCCN1CCCC1` [UNC0638] (1 nM) yielded a normalised response of 104%.
`CNC(=O)c1cc(Oc2ccc(NC(=O)Nc3cc(C(C)(C)C)nn3-c3ccc4ncccc4c3)c(F)c2)ccn1` [Rebastinib] (0.1 nM) gave a normalised response of 97.7%.
Compound `N#Cc1ccc(C(c2ccc(C#N)cc2)n2cncn2)cc1` [Letrozole] (1 nM) has a normalised response of 95.7%.
Compound `CC[C@H](Nc1ncnc2[nH]cnc12)c1nc2cccc(F)c2c(=O)n1-c1ccccc1` [GS-1101] (1 nM) has a normalised response of 90.1%.
With `O=C(O)C(=O)O.[NH-][C@@H]1CCCC[C@H]1[NH-].[Pt+2]` [Oxaliplatin] (10 nM) the normalised response was 101%.
Compound `C=CC(=O)Nc1cc2c(Nc3ccc(F)c(Cl)c3)ncnc2cc1OCCCN1CCOCC1` [Canertinib] (10 nM) has a normalised response of 91.7%.
Compound `CC(=O)Nc1cccc(-n2c(=O)n(C3CC3)c(=O)c3c(Nc4ccc(I)cc4F)n(C)c(=O)c(C)c32)c1` [Trametinib] (0.25 nM) has a normalised response of 102%.
With `C=CC(=O)N1CCC[C@@H](n2nc(-c3ccc(Oc4ccccc4)cc3)c3c(N)ncnc32)C1` [Ibrutinib] (1 nM) the normalised response was 97.7%.
Work on `CCCCC(=O)OCC(=O)[C@]1(O)Cc2c(O)c3c(c(O)c2[C@@H](O[C@H]2C[C@H](NC(=O)C(F)(F)F)[C@H](O)[C@H](C)O2)C1)C(=O)c1c(OC)cccc1C3=O` [Valrubicin] (0.5 nM) yielded a normalised response of 95.2%.
`COc1cc2nccc(Oc3ccc(NC(=O)Nc4cc(C)on4)c(Cl)c3)c2cc1OC` [Tivozanib] (10 nM) was tested, and the normalised response was 97.4%.
`CCN(CC)CCCC(C)Nc1c2ccc(Cl)cc2nc2ccc(OC)cc12` (stereo not given) [Mepacrine] (5 nM) was tested, and the normalised response was 107%.
Compound `CCCS(=O)(=O)Nc1ccc(F)c(C(=O)c2c[nH]c3ncc(-c4ccc(Cl)cc4)cc23)c1F` [Vemurafenib] (10 nM) has a normalised response of 95.2%.
For `CCCS(=O)(=O)Nc1ccc(F)c(C(=O)c2c[nH]c3ncc(-c4ccc(Cl)cc4)cc23)c1F` [Vemurafenib] (1 nM), the normalised response was 92.4%.
Compound `CC1=C(/C=C/C(C)=C/C=C/C(C)=C/C(=O)O)C(C)(C)CCC1` [Tretinoin] (10 nM) has a normalised response of 93.2%.
For `Cc1ccc(-c2cc(C(F)(F)F)nn2-c2ccc(S(N)(=O)=O)cc2)cc1` [Celecoxib] (1 nM), the normalised response was 96.8%.
Work on `Oc1ncc(N(CCCl)CCCl)c(O)n1` [Uracil mustard] (1 nM) yielded a normalised response of 98.6%.
`Nc1ccccc1NC(=O)c1ccc(CNC(=O)OCc2cccnc2)cc1` [Entinostat] (1 nM) was tested, and the normalised response was 99.2%.
Work on `C=CC(=O)Nc1cc2c(Nc3ccc(F)c(Cl)c3)ncnc2cc1OCCCN1CCOCC1` [Canertinib] (1 nM) yielded a normalised response of 95.2%.

The compounds below were run on CAL-85-1 in the same assay as above. Details: incubation time: 72 h.
Method in brief: as §1
Compound `C=CC(=O)N1CCC[C@@H](n2nc(-c3ccc(Oc4ccccc4)cc3)c3c(N)ncnc32)C1` [Ibrutinib] (0.1 nM) has a normalised response of 100%.
In the case of `Nc1nc2[nH]cc(CCc3ccc(C(=O)N[C@@H](CCC(=O)O)C(=O)O)cc3)c2c(=O)[nH]1` [Pemetrexed] (1 nM), the normalised response is reported as 94.2%.
`COc1cc2nccc(Oc3ccc(NC(=O)Nc4cc(C)on4)c(Cl)c3)c2cc1OC` [Tivozanib] (1 nM) was tested, and the normalised response was 93%.
`COc1cc2c(NC3CCN(C(C)C)CC3)nc(C3CCCCC3)nc2cc1OCCCN1CCCC1` [UNC0638] (1 nM) was tested, and the normalised response was 97.4%.
`CNC(=O)c1cc(Oc2ccc(NC(=O)Nc3cc(C(C)(C)C)nn3-c3ccc4ncccc4c3)c(F)c2)ccn1` [Rebastinib] (0.1 nM) was tested, and the normalised response was 96.6%.
Work on `N#Cc1ccc(C(c2ccc(C#N)cc2)n2cncn2)cc1` [Letrozole] (1 nM) yielded a normalised response of 100%.
`CC[C@H](Nc1ncnc2[nH]cnc12)c1nc2cccc(F)c2c(=O)n1-c1ccccc1` [GS-1101] (1 nM) was tested, and the normalised response was 95.1%.
In the case of `O=C(O)C(=O)O.[NH-][C@@H]1CCCC[C@H]1[NH-].[Pt+2]` [Oxaliplatin] (10 nM), the normalised response is reported as 98.7%.
`C=CC(=O)Nc1cc2c(Nc3ccc(F)c(Cl)c3)ncnc2cc1OCCCN1CCOCC1` [Canertinib] (10 nM) was tested, and the normalised response was 99.6%.
Work on `CC(=O)Nc1cccc(-n2c(=O)n(C3CC3)c(=O)c3c(Nc4ccc(I)cc4F)n(C)c(=O)c(C)c32)c1` [Trametinib] (0.25 nM) yielded a normalised response of 98.6%.
`C=CC(=O)N1CCC[C@@H](n2nc(-c3ccc(Oc4ccccc4)cc3)c3c(N)ncnc32)C1` [Ibrutinib] (1 nM) showed a normalised response of 98.3%.
`CCCCC(=O)OCC(=O)[C@]1(O)Cc2c(O)c3c(c(O)c2[C@@H](O[C@H]2C[C@H](NC(=O)C(F)(F)F)[C@H](O)[C@H](C)O2)C1)C(=O)c1c(OC)cccc1C3=O` [Valrubicin] (0.5 nM) gave a normalised response of 98.2%.
`COc1cc2nccc(Oc3ccc(NC(=O)Nc4cc(C)on4)c(Cl)c3)c2cc1OC` [Tivozanib] (10 nM) showed a normalised response of 93.5%.
`CCN(CC)CCCC(C)Nc1c2ccc(Cl)cc2nc2ccc(OC)cc12` (stereo not given) [Mepacrine] (5 nM) was tested, and the normalised response was 93.8%.
`CCCS(=O)(=O)Nc1ccc(F)c(C(=O)c2c[nH]c3ncc(-c4ccc(Cl)cc4)cc23)c1F` [Vemurafenib] (10 nM) was tested, and the normalised response was 90.9%.
For `CCCS(=O)(=O)Nc1ccc(F)c(C(=O)c2c[nH]c3ncc(-c4ccc(Cl)cc4)cc23)c1F` [Vemurafenib] (1 nM), the normalised response was 98%.
`CC1=C(/C=C/C(C)=C/C=C/C(C)=C/C(=O)O)C(C)(C)CCC1` [Tretinoin] (10 nM) was tested, and the normalised response was 100%.
In the case of `Cc1ccc(-c2cc(C(F)(F)F)nn2-c2ccc(S(N)(=O)=O)cc2)cc1` [Celecoxib] (1 nM), the normalised response is reported as 104%.
`Oc1ncc(N(CCCl)CCCl)c(O)n1` [Uracil mustard] (1 nM) gave a normalised response of 94.2%.
Compound `Nc1ccccc1NC(=O)c1ccc(CNC(=O)OCc2cccnc2)cc1` [Entinostat] (1 nM) has a normalised response of 106%.
Work on `C=CC(=O)Nc1cc2c(Nc3ccc(F)c(Cl)c3)ncnc2cc1OCCCN1CCOCC1` [Canertinib] (1 nM) yielded a normalised response of 103%.

What follows are compounds tested on Hs578T in the same assay as above. Details: incubation time: 72 h.
Method in brief: as §1
`C=CC(=O)N1CCC[C@@H](n2nc(-c3ccc(Oc4ccccc4)cc3)c3c(N)ncnc32)C1` [Ibrutinib] (0.1 nM) gave a normalised response of 104%.
Compound `Nc1nc2[nH]cc(CCc3ccc(C(=O)N[C@@H](CCC(=O)O)C(=O)O)cc3)c2c(=O)[nH]1` [Pemetrexed] (1 nM) has a normalised response of 101%.
